In patent publication US9193736B2, “PDE 10a inhibitors for the treatment of type II diabetes” (Janssen Pharmaceutica, NV, priority 2013, dated 2015):
Where a name gives a salt, the structure may show the parent alone.

Columns and labels:
[1] = target: Human recombinant PDE10A2 (Homo sapiens (Human), UniProt Q9Y233); test: In vitro hPDE10a: human recombinant PDE10A2 scintillation proximity assay, IC50; format: biochemical; details: human recombinant PDE10A2, SPA, 60 nM cAMP; read-out: hPDE10a2 IC50
Sequence of Human recombinant PDE10A2 (Q9Y233 267-1055): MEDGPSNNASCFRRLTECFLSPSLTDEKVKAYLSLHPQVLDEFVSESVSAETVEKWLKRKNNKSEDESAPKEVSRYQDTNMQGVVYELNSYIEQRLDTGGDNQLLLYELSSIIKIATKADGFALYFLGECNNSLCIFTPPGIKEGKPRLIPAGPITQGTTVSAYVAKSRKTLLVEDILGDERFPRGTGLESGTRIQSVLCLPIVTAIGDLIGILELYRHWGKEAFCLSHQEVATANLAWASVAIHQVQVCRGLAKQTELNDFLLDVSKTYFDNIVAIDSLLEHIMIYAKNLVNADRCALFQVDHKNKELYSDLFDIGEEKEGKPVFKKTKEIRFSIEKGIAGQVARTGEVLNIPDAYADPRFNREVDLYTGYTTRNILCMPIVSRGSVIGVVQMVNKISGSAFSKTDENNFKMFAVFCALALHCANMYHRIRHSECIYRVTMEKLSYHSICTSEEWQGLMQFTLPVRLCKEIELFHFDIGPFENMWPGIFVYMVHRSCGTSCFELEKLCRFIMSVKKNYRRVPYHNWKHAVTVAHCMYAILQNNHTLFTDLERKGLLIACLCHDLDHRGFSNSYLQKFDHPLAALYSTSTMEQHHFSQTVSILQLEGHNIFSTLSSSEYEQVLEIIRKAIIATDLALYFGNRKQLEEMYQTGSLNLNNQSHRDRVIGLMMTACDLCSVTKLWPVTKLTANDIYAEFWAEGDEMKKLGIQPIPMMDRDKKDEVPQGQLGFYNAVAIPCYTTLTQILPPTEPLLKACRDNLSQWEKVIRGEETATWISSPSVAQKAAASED
Method: Cells were harvested and the phosphodiesterase protein was purified by metal chelate chromatography on Ni-sepharose 6FF. The affinity of the compounds of Formula (I) for phophodiesterases (PDE) was measured by a scintillation proximity assay (SPA). PDE Yttrium Silicate SPA beads allow PDE activity to be measured by direct binding of the primary phosphate groups of non-cyclic AMP or GMP to the beads via a complex iron chelation mechanism. The amount of bound tritiated product ([^3H]-AMP) is measured by liquid scintillation counting. The compounds were dissolved and diluted in 100% DMSO in polystyrene plates to a concentration of 100-fold the final concentration in the assay. […] After incubation, the reaction was stopped with 20 μL of stop solution, consisting of PDE SPA beads (17.8 mg beads/mL in 18 mM zinc sulphate). […] To measure the low control, no enzyme was added to the reaction mixture. Data were calculated as the percentage of inhibition of total activity measured in the absence of test compound (% control). […] For compounds tested more than once, the data points were aggregated.

[2] = target: Rat recombinant PDE10a (rPDE10a) (Rattus norvegicus (Rat), UniProt Q9QYJ6); test: In vitro assay PDE10a: rat recombinant PDE10a SPA with 3H-cAMP substrate, IC50; format: biochemical; details: 60 nM cAMP, read-out: rPDE10a2 IC50
Sequence of Rat recombinant PDE10a (rPDE10a) (Q9QYJ6 whole entry): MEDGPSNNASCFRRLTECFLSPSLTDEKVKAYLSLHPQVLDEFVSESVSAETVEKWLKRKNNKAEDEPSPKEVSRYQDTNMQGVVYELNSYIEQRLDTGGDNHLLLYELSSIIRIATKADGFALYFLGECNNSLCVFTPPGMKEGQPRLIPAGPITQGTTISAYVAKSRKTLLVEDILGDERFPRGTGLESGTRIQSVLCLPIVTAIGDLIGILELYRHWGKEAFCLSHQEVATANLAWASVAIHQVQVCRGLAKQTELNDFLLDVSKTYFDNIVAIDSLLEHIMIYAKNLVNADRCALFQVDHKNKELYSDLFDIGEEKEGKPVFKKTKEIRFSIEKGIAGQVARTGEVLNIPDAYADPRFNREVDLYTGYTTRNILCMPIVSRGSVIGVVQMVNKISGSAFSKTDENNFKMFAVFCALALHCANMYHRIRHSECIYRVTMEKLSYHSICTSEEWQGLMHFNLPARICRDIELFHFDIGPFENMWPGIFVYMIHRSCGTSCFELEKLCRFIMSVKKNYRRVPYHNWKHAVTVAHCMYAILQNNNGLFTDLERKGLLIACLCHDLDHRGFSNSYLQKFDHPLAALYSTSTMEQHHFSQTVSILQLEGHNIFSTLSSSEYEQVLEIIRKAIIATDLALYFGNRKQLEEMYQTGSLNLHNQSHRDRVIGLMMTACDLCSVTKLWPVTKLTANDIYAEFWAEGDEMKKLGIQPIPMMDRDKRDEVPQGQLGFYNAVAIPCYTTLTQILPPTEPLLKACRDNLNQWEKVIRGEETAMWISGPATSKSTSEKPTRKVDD
Method: In Vitro Assay PDE10a Rat recombinant PDE10a (rPDE10a) was expressed in Sf9 cells using a recombinant rPDE10a baculovirus construct. Cells were harvested after 48 h of infection and the rPDE10a protein was purified by metal chelate chromatography on Ni-sepharose 6FF. Tested compounds were dissolved and diluted in 100% DMSO to a concentration 100 fold of the final concentration in the assay. […] The reaction was incubated for 60 min at rt. After incubation, the reaction was stopped with 20 μL of 17.8 mg/mL PDE SPA beads. […] For blank values the enzyme was omitted from the reaction and replaced by incubation buffer.

Compound | IC50 [1] [nM] | IC50 [2] [nM]
CC(C)[C@H](NC(=O)c1ccc(-c2c(CCc3ccc4ccccc4n3)nc3c(N4CCOCC4)ccnn23)cc1)C(=O)O [Cpd 75, N-({4-[8-Morpholin-4-yl-2-(2-quinolin-2-ylethyl)imidazo[1,2-b]pyridazin-3-yl]phenyl}carbonyl)-L-valine] | 4 | 7
Cn1nc(-c2ccc(-c3c(CCc4ccc5ccccc5n4)nc4c(N5CCOCC5)ccnn34)cc2)[nH]c1=O [Cpd 78, 1-Methyl-3-[4-[8-(morpholin-4-yl)-2-[2-(quinolin-2-yl)ethyl]imidazo[1,2-b]pyridazin-3-yl]phenyl]-4,5-dihydro-1H-1,2,4-triazol-5-one] | 15 | 20
O=C(O)c1ccc(-c2c(CCc3ccc4c(n3)CCCC4)nc3c(N4CCOCC4)ccnn23)cc1 [Cpd 79, 4-(8-Morpholino-2-(2-(5,6,7,8-tetrahydroquinolin-2-yl)ethyl)imidazo[1,2-b]pyridazin-3-yl)benzoic acid trifluoroacetic acid salt] | 3 | 8
O=C(O)c1ccc(-c2c(/C=C/c3ccccn3)nc3c(N4CCOCC4)ccnn23)cc1 [Cpd 89, (E)-4-(8-Morpholino-2-(2-(pyridin-2-yl)vinyl)imidazo[1,2-b]pyridazin-3-yl)benzoic acid] | 89 | 62
O=C(O)CCNc1ccc(-c2c(/C=C/c3ccc4ccccc4n3)nc3c(N4CCOCC4)ccnn23)cc1 [Cpd 93, (E)-3-(4-(8-Morpholino-2-(2-(quinolin-2-yl)vinyl)imidazo[1,2-b]pyridazin-3-yl)phenylamino)propanoic acid trifluoroacetic acid salt] | 3 | 3
O=C(O)c1ccc2ccc(/C=C/c3cn4nc(Cl)cc(N5CCOCC5)c4n3)nc2c1 [Cpd 94, 2-[(E)-2-(6-Chloro-8-morpholin-4-ylimidazo[1,2-b]pyridazin-2-yl)ethenyl]quinoline-7-carboxylic acid] | 53 | 82
O=C(O)c1ccc(-c2c(C#Cc3ccc(C(F)(F)F)cn3)nc3c(N4CCOCC4)ccnn23)cc1 [Cpd 97, 4-(8-Morpholino-2-((5-(trifluoromethyl)pyridin-2-yl)ethynyl)imidazo[1,2-b]pyridazin-3-yl)benzoic acid] | 22 | 20
CC(C)[C@H](Nc1ccc(-c2c(/C=C/c3ccc4ccccc4n3)nc3c(N4CCOCC4)ccnn23)cc1)C(=O)O [Cpd 99, (S,E)-3-Methyl-2-(4-(8-morpholino-2-(2-(quinolin-2-yl)vinyl)imidazo[1,2-b]pyridazin-3-yl)phenylamino)butanoic acid trifluoroacetic acid salt] | 10 | 12
CS(=O)(=O)NC(=O)c1cccc2nc(/C=C/c3cn4nc(Cl)cc(N5CCOCC5)c4n3)ccc12 [Cpd 104, 2-[(E)-2-(6-Chloro-8-morpholin-4-ylimidazo[1,2-b]pyridazin-2-yl)ethenyl]-N-(methylsulfonyl)quinoline-5-carboxamide] | 3 | 8
C(=C\c1nc2c(N3CCOCC3)ccnn2c1-c1cccc(-c2nnn[nH]2)c1)/c1ccc2ccccc2n1 [Cpd 105, (E)-4-(3-(3-(1H-Tetrazol-5-yl)phenyl)-2-(2-(quinolin-2-yl)vinyl)imidazo[1,2-b]pyridazin-8-yl)morpholine trifluoroacetic acid salt] | 4 | 5

Now from value to compound:

IC50 [1] [nM] | IC50 [2] [nM] | Compound
< 1 | < 1 | O=C(O)c1ccc(-c2c(C#Cc3ccc4ccccc4n3)nc3c(N4CCOCC4)ccnn23)cc1 [Cpd 77, 4-(8-Morpholino-2-(quinolin-2-ylethynyl)imidazo[1,2-b]pyridazin-3-yl)benzoic acid]
< 1 | < 1 | C(#Cc1cn2nccc(N3CCOCC3)c2n1)c1ccc2ccccc2n1 [Cpd 84, 2-[(8-Morpholin-4-ylimidazo[1,2-b]pyridazin-2-yl)ethynyl]quinoline]
< 1 | < 1 | O=C(O)c1ccc(-c2c(C#Cc3ccc4ccccc4n3)nc3c(N4CCOCC4)ccnn23)s1 [Cpd 85, 5-(8-Morpholino-2-(quinolin-2-ylethynyl)imidazo[1,2-b]pyridazin-3-yl)thiophene-2-carboxylic acid]
2 | 2 | O=C(O)c1ccc(-c2c(C#Cc3ccccn3)nc3c(N4CCOCC4)ccnn23)cc1 [Cpd 86, 4-(8-Morpholino-2-(pyridin-2-ylethynyl)imidazo[1,2-b]pyridazin-3-yl)benzoic acid]
1 | 1 | O=C(O)c1ccc(-c2c(C#Cc3nc4ccccc4s3)nc3c(N4CCOCC4)ccnn23)cc1 [Cpd 87, 4-(2-(Benzo[d]thiazol-2-ylethynyl)-8-morpholinoimidazo[1,2-b]pyridazin-3-yl)benzoic acid]
< 1 | < 1 | O=C(O)c1cccc(-c2c(C#Cc3ccc4ccccc4n3)nc3c(N4CCOCC4)ccnn23)c1 [Cpd 88, 3-(8-Morpholino-2-(quinolin-2-ylethynyl)imidazo[1,2-b]pyridazin-3-yl)benzoic acid trifluoroacetic acid salt]
19 | 17 | O=C(O)c1ccc(-c2c(/C=C/c3nc4ccccc4s3)nc3c(N4CCOCC4)ccnn23)cc1 [Cpd 90, (E)-4-(2-(2-(Benzo[d]thiazol-2-yl)vinyl)-8-morpholinoimidazo[1,2-b]pyridazin-3-yl)benzoic acid]
22 | 31 | N#Cc1ccc(C#Cc2nc3c(N4CCOCC4)ccnn3c2-c2ccc(C(=O)O)cc2)nc1 [Cpd 96, 4-(2-((5-Cyanopyridin-2-yl)ethynyl)-8-morpholinoimidazo[1,2-b]pyridazin-3-yl)benzoic acid]
4 | 5 | CC(C)[C@H](NC(=O)c1ccc(-c2c(C#Cc3ccc4ccccc4n3)nc3c(N4CCOCC4)ccnn23)cc1)C(=O)O [Cpd 101, (S)-3-Methyl-2-(4-(8-morpholino-2-(quinolin-2-ylethynyl)imidazo[1,2-b]pyridazin-3-yl)benzamido)butanoic acid trifluoroacetic acid salt]
< 1 | < 1 | O=C(O)c1ccc(-c2c(C#Cc3nc4ccccc4[nH]3)nc3c(N4CCOCC4)ccnn23)cc1 [Cpd 108, 4-(2-((1H-Benzo[d]imidazol-2-yl)ethynyl)-8-morpholinoimidazo[1,2-b]pyridazin-3-yl)benzoic acid]
< 1 | < 1 | COc1cccc(C#Cc2nc3c(N4CCOCC4)ccnn3c2-c2ccc(C(=O)O)cc2)n1 [Cpd 109, 4-(2-((6-Methoxypyridin-2-yl)ethynyl)-8-morpholinoimidazo[1,2-b]pyridazin-3-yl)benzoic acid]
2 | 2 | COc1ccc(C#Cc2nc3c(N4CCOCC4)ccnn3c2-c2ccc(C(=O)O)cc2)nc1 [Cpd 110, 4-(2-((5-Methoxypyridin-2-yl)ethynyl)-8-morpholinoimidazo[1,2-b]pyridazin-3-yl)benzoic acid]
~18 | 17 | O=C(O)c1ccc(-c2c(C#Cc3cccc(C(F)(F)F)n3)nc3c(N4CCOCC4)ccnn23)cc1 [Cpd 111, 4-(8-Morpholino-2-((6-(trifluoromethyl)pyridin-2-yl)ethynyl)imidazo[1,2-b]pyridazin-3-yl)benzoic acid]
